How the values were obtained:
[1] = tested on: MCF-7 breast cancer cells; experiment: Pharmacodynamic experiment in mouse models of human breast cancer (MCF-7 tumors); type: in vivo, NOD/SCID female mice; conditions: dose 10 mg/kg, once-daily oral gavage
Description: MCF-7 breast cancer cells were cultured in MEM medium containing 10% FBS, 0.01 mM NEAA, and 10 µg/mL insulin. MCF-7 cells in the exponential growth phase were collected and resuspended in PBS to a suitable concentration for subcutaneous injection into mice. The experimental animals were NOD/SCID female mice (purchased from GemPharmatech Co. Itd, Jiangsu). Before inoculation of tumor cells, a 0.36 mg/60-day slow-release estrogen tablet (17β-estradiol, Innovative Research of America, Sarasota, Florida, USA) was subcutaneously implanted on the right side of the back of the experimental animals. The day after estrogen tablet implantation, 2×10^7 MCF-7 cells were inoculated into the right mammary fatty pad of the experimental mice, wherein the cells were resuspended in PBS and Matrigel (1:1) (0.2 mL/mouse). The tumor growth was regularly observed.
When the tumors in the tumor-bearing mice grew to an average volume of approximately 245.56 mm^3, they were randomly grouped for administration based on tumor size. Grouping was performed using StudyDirector™ (version 3.1.399.19, supplier Studylog System, Inc., S. San Francisco, CA, USA). […]
After starting drug administration, the body weight and tumor size of mice were measured twice a week. […] The raw data were directly imported into the software after being measured using a balance and vernier caliper. […]

[2] = Pharmacokinetics in female ICR mice; conditions: female, ICR, mouse, plasma, po, 3 mg/kg
Description: Pharmacokinetic experimental steps: A suitable amount of compound to be administered was weighed, and after the final volume required was calculated, a drug solution with corresponding concentration was prepared using the medium (DMSO/HS-15/Tween 80/D5W (5:5:2:88, v/v/v/v)). For intravenous administration, each drug was administered to 9 animals (female ICR mice, provided by Chengdu Dossy Experimental Animal Co., Ltd.) at a dose of 1 mg/kg (drug volume of 10 mL/kg, drug concentration of 0.1 mg/mL). After administration, samples were alternately collected from three animals of each group at time points of 5 min, 15 min, 30 min, 1 h, 2 h, 4 h, 8 h, 12 h, and 24 h. For oral gavage, each drug was administered to 9 animals (female ICR mice) at a dose of 3 mg/kg (drug volume of 10 mL/kg, drug concentration of 0.3 mg/mL). After administration, samples are alternately collected from three animals of each group at time points of 15 min, 30 min, 1 h, 2 h, 4 h, 6 h, 8 h, 12 h, and 24 h. The samples were anticoagulated with EDTA-K2 and centrifuged at 4° C. for 5 min to separate the plasma. The plasma samples were vortexed and mixed. A suitable amount of internal standard working solution was added to the 96-well plate containing samples used for plotting standard curve, samples used for quality control, or samples to be tested; A suitable amount of methanol was added to the blank sample, vortexed and mixed thoroughly, and then centrifuged for 15 min before the supernatant was collected and injected to LC-MS/MS for analysis. The plasma concentration at each time point was used to calculate the main pharmacokinetic parameters using the Winnolin 8.3 non-compartmental model.

## O=C1CCC(N2Cc3cc(N4CCN(CC5CCN(c6ccc([C@@H]7c8ccc(O)cc8CC[C@@H]7c7ccccc7)cc6)CC5)CC4)ccc3C2=O)C(=O)N1 (stereo partly shown) [Control compound X, reference compound]
[1]; day 28
  TGI (tumor growth inhibition): 29%
[1]; end of experiment (day 28)
  average tumor volume: 362 mm^3
[2]
  half-life: 2.3 h
[2]; AUCinf (μg*h/mL), oral administration 3 mg/kg, female ICR mice
  AUC(0-inf): 1300 ng·h/mL

Reference: patent US20260258039A1, “AROMATIC COMPOUND, METHOD FOR PREPARING SAME, AND USE THEREOF IN PREPARATION OF ESTROGEN RECEPTOR DEGRADER” (Hinova Pharmaceuticals Inc., priority 2022, published 2026)
